Assay results published in patent US7816353B2 (Exelixis, Inc., priority 2003, dated 2010).

Columns and labels:
Format in all cases: biochemical
[1] = target: T1, PDK1 (Homo sapiens, UniProt O15530); assay: PDK1 Kinase Assay (Luciferase-Coupled Chemiluminescent Kinase assay, LCCA); details: human PDK1 kinase domain residues M51-T359; 0.5 μM ATP; read-out: PDK-1 IC50
T1 construct: human PDK1 kinase domain residues M51-T359; made in house
T1 sequence (O15530 51-359): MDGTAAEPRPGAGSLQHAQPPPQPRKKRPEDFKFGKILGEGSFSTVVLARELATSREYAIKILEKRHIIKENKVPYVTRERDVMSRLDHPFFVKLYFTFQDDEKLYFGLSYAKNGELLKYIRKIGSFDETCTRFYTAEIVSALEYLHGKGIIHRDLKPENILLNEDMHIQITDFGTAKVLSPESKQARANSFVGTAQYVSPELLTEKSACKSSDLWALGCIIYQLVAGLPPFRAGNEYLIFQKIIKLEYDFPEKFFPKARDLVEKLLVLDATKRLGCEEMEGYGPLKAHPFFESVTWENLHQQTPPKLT
Method: (§1) Kinase activity and compound inhibition are investigated using one or more of the three assay formats described below. The ATP concentrations for each assay are selected to be close to the Michaelis-Menten constant (KM) for each individual kinase. Dose-response experiments are performed at 10 different inhibitor concentrations in a 384-well plate format. The data are fitted to four-parameter equation (2) below; where Y is the observed signal, X is the inhibitor concentration, Min is the background signal in the absence of enzyme (0% enzyme activity), Max is the signal in the absence of inhibitor (100% enzyme activity), IC50 is the inhibitor concentration at 50% enzyme inhibition and H represents the empirical Hill's slope to measure the cooperativity. Typically H is close to unity. Y=Min+(Max−Min)/(1+(X/IC50)^H) Equation (2) p70S6 Kinase Assay
Biochemical activity of PDK1 kinase was assessed using a Luciferase-Coupled Chemiluminescent Kinase assay (LCCA) format. Kinase activity was measured as the percent ATP remaining following the kinase reaction. Remaining ATP was detected by luciferase-luciferin-coupled chemiluminescence. Specifically, the reaction was initiated by mixing test compounds, 0.5 μM ATP, 0.6 μM PDKtide peptide and 6 nM PDK1 (baculovirus expressed human PDK1 kinase domain residues M51-T359) in a 20 uL assay buffer (20 mM Hepes pH 7.5, 1 mM CaCl2, 0.03% CHAPS, 2 mM DTT). The mixture is incubated at ambient temperature for 3 hours after which 20 μL luciferase-luciferin mix is added and the chemiluminescent signal read using a Wallac Victor2 reader. The luciferase-luciferin mix consists of 50 mM HEPES, pH 7.8, 8.5 μg/mL oxalic acid (pH 7.8), 5 (or 50) mM DTT, 0.4% Triton X-100, 0.25 mg/mL coenzyme A, 63 uM AMP, 28 μg/mL luciferin and 40,000 units/mL luciferase.

[2] = target: T2, Akt1 (Homo sapiens, UniProt P31749); assay: Akt1 Kinase Assay (Luciferase-Coupled Chemiluminescent Kinase assay, LCCA); details: human Akt1 kinase domain residues R144-A480, activated with PDK1; 1 μM ATP; read-out: Akt-1 IC50
T2 construct: made in house
Method: as §1
Biochemical activity of Akt1 kinase was assessed using a Luciferase-Coupled Chemiluminescent Kinase assay (LCCA) format. Kinase activity was measured as the percent ATP remaining following the kinase reaction. Remaining ATP was detected by luciferase-luciferin-coupled chemiluminescence. Specifically, the reaction was initiated by mixing test compounds, 1 μM ATP, 5 μM crosstide peptide and 1.3 nM Akt1 (baculovirus expressed human Akt1 kinase domain residues R144-A480, activated with PDK1) in a 20 uL assay buffer (20 mM Tris-HCL pH 7.5, 10 mM MgCl2, 0.01% Triton X-100, 1 mM DTT, 3 mM MnCl2). The mixture is incubated at ambient temperature for 3 hours after which 20 μL luciferase-luciferin mix is added and the chemiluminescent signal read using a Wallac Victor2 reader. The luciferase-luciferin mix consists of 50 mM HEPES, pH 7.8, 8.5 μg/mL oxalic acid (pH 7.8), 5 (or 50) mM DTT, 0.4% Triton X-100, 0.25 mg/mL coenzyme A, 63 uM AMP, 28 μg/mL luciferin and 40,000 units/mL luciferase.

[3] = target: T3, p70S6K (Homo sapiens, UniProt P23443, T412E); assay: p70S6 Kinase Assay (Luciferase-Coupled Chemiluminescent Kinase assay, LCCA); details: human p70S6 kinase domain residues 1-421, T412E; 5 μM ATP; read-out: p70S6K IC50
T3 construct: human p70S6 kinase domain residues 1-421, containing a T412E mutation; made in house
Summary of the method: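 Luciferase-coupled chemiluminescence measured percent ATP remaining after the 2 h kinase reaction at ambient temperature, with ATP near the kinase's KM. Ten inhibitor concentrations were tested. IC50 was obtained from a Hill-equation fit.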

T3 sequence (P23443 1-421 T412E): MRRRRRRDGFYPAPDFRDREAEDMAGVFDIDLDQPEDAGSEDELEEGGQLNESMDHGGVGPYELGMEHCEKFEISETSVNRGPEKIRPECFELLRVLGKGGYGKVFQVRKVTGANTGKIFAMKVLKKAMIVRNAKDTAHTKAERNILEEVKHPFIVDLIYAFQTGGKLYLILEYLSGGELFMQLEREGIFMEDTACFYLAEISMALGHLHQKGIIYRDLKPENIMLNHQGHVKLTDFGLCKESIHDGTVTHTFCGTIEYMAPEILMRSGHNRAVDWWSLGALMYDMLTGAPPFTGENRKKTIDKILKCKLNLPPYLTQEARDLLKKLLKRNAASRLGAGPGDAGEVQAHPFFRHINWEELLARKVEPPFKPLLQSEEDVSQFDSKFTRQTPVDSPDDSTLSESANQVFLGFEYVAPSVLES
T2 sequence (P31749 144-480): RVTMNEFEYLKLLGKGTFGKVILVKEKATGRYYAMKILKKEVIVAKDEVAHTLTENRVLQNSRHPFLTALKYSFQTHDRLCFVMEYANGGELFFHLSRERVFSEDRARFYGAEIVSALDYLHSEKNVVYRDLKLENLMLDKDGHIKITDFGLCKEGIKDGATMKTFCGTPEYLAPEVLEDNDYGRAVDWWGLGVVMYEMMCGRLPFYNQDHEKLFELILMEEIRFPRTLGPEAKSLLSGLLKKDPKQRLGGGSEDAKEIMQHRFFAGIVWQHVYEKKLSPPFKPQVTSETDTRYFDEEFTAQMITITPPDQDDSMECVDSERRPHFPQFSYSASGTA

SMILES | IC50 [1] [µM] | IC50 [2] [µM] | IC50 [3] [µM]
CSc1cc(COC(=O)Nc2cccc(C(F)(F)F)c2)nc(NCc2ccccc2)n1 [Example 38, {6-(methylthio)-2-[(phenylmethyl)amino]pyrimidin-4-yl}methyl [3-(trifluoromethyl)phenyl]carbamate] | > 2 | > 2 | < 0.05
CSc1nc(N)nc(N[C@@H](CCCNC(N)=O)C(=O)Nc2cccc(C(F)(F)F)c2)c1C#N [Example 147, N~5~-(aminocarbonyl)-N~2~-[2-amino-5-cyano-6-(methylthio)pyrimidin-4-yl]-N-[3-(trifluoromethyl)phenyl]-L-omithinamide] |  | > 2 | 0.5 to 2
COc1ccc(OC)c(C(=O)CSc2nc(N)nc(SC)c2C#N)c1 [Example 30, 2-amino-4-({2-[2,5-bis(methyloxy)phenyl]-2-oxoethyl}thio)-6-(methylthio)pyrimidine-5-carbonitrile] | > 2 | > 2 | < 0.05
CNc1cc(COC(=O)Nc2cccc(C(F)(F)F)c2)nc(SC)n1 [Example 39, [6-(methylamino)-2-(methylthio)pyrimidin-4-yl]methyl [3-(trifluoromethyl)phenyl]carbamate] | > 2 | > 2 | < 0.05
CCOc1nc(N)nc(N(C)[C@@H](C)C(=O)Nc2cccc(OC(F)(F)F)c2)c1C#N [Example 172, N~2~-[2-amino-5-cyano-6-(ethyloxy)pyrimidin-4-yl]-N~2~-methyl-N-{3-[(trifluoromethyl)oxy]phenyl}-L-alaninamide] |  | > 2 | > 2
CSc1nc(N)nc(SCC(=O)c2ccc3c(c2)NC(=O)CO3)c1C#N [Example 49, 2-amino-4-(methylthio)-6-{[2-oxo-2-(3-oxo-3,4-dihydro-2H-1,4-benzoxazin-6-yl)ethyl]thio}pyrimidine-5-carbonitrile] | > 2 | > 2 | 0.05 to 0.5
CSc1nc(N)nc(SCC(=O)Nc2ccccn2)c1C#N [Example 29, 2-{[2-amino-5-cyano-6-(methylthio)pyrimidin-4-yl]thio}-N-pyridin-2-ylacetamide] | > 2 | > 2 | < 0.05
Nc1nc(Cl)c(C=O)c(SCC(=O)Nc2cccc(C(F)(F)F)c2)n1 [Example 43, 2-[(2-amino-6-chloro-5-formylpyrimidin-4-yl)thio]-N-[3-(trifluoromethyl)phenyl]acetamide] |  | > 2 | 0.05 to 0.5
Cc1nc(OCC(=O)Nc2cccc(C(F)(F)F)c2)c(C#N)c(C)c1[N+](=O)[O-] [Example 1, 2-[(3-cyano-4,6-dimethyl-5-nitropyridin-2-yl)oxy]-N-[3-(trifluoromethyl)phenyl]acetamide] | > 2 | > 2 | < 0.05
CCOC(=O)c1sc(NC(=O)CSc2nc(N)nc(SC)c2C#N)c(C#N)c1C [Example 28, ethyl 5-[({[2-amino-5-cyano-6-(methylthio)pyrimidin-4-yl]thio}acetyl)amino]-4-cyano-3-methylthiophene-2-carboxylate] | > 2 | > 2 | < 0.05
CCc1nnc(NC(=O)CSc2nc(N)nc(SC)c2C#N)s1 [Example 24, 2-{[2-amino-5-cyano-6-(methylthio)pyrimidin-4-yl]thio}-N-(5-ethyl-1,3,4-thiadiazol-2-yl)acetamide] | > 2 | > 2 | < 0.05
CSc1nc(N)nc(SCC(=O)Nc2ccc(Cl)c(C(F)(F)F)c2)c1C#N [Example 34, 2-{[2-amino-5-cyano-6-(methylthio)pyrimidin-4-yl]thio}-N-[4-chloro-3-(trifluoromethyl)phenyl]acetamide] | > 2 | > 2 | < 0.05
CSc1nc(N)nc(N[C@H](CCCCN)C(=O)Nc2cccc(C(F)(F)F)c2)c1C#N [Example 195] |  | > 2 | > 2
CSc1nc(N)nc(N[C@@H](C)C(=O)Nc2cc(C(=O)NO)cc(C(F)(F)F)c2)c1C#N [Example 141, 3-({N-[2-amino-5-cyano-6-(methylthio)pyrimidin-4yl]-L-alanyl}amino)-N-hydroxy-5-(trifluoromethyl)benzamide] | > 2 | > 2 | 0.05 to 0.5
CSc1ncc(C#N)c(NCC(=O)Nc2cccc(C(F)(F)F)c2)n1 [Example 100, N^2-[5-cyano-2-(methylthio)pyrimidin-4-yl]-N-[3-(trifluoromethyl)phenyl]glycinamide] |  | > 2 | > 2
COC(=O)c1cc(NC(=O)[C@H](C)Nc2nc(N)nc(SC)c2C#N)cc(C(F)(F)F)c1 [Example 112, methyl 3-({N-[2-amino-5-cyano-6-(methylthio)pyrimidin-4-yl]-L-alanyl}amino)-5-(trifluoromethyl)benzoate] |  | > 2 | > 2
Nc1nc(NCC(=O)Nc2cccc(C(F)(F)F)c2)cc(N2CCOCC2)n1 | > 2 |  | < 0.05
CCOc1nc(N)nc(N[C@H](CCCCN)C(=O)Nc2cccc(C(F)(F)F)c2)c1C#N [Example 196, N~2~-[2-amino-5-cyano-6-(ethyloxy)pyrimidin-4-yl]-N-[3-(trifluoromethyl)phenyl]-D-lysinamide] |  | > 2 | > 2
CSc1nc(N)nc(N(CC(=O)Nc2cccc(C(F)(F)F)c2)CC2CCOCC2)c1C#N [Example 101, N^2-[2-amino-5-cyano-6-(methylthio)pyrimidin-4-yl]-N^2-(tetrahydro-2H-pyran-4-ylmethyl)-N-[3-(trifluoromethyl)phenyl]glycinamide] |  | > 2 | > 2
Nc1nc(Cl)cc(SCC(=O)Nc2cccc(C(F)(F)F)c2)n1 |  | > 2 | 0.05 to 0.5
CCOc1nc(N)nc(N[C@@H](C)C(=O)Nc2cc(C(=O)NCCN(C)C)cc(C(F)(F)F)c2)c1C#N [Example 160, 3-({N-[2-amino-5-cyano-6-(ethyloxy)pyrimidin-4-yl]-L-alanyl}amino)-N-[2-(dimethylamino)ethyl]-5-(trifluoromethyl)benzamide] |  | > 2 | > 2
CCOc1nc(N)nc(N[C@@H](CCCNC(N)=O)C(=O)Nc2cccc(C(F)(F)F)c2)c1C#N [Example 194] |  | > 2 | > 2
CCOc1nc(N)nc(N[C@@H](CCCN)C(=O)Nc2cccc(C(F)(F)F)c2)c1C#N [Example 148, N~2~-[2-amino-5-cyano-6-(ethyloxy)pyrimidin-4-yl]-N-[3-(trifluoromethyl)phenyl]-L-omithinamide] |  | > 2 | 0.5 to 2
CSc1nc(N)nc(SCC(=O)Nc2nc3ccccc3s2)c1C#N [Example 23, 2-{[2-amino-5-cyano-6-(methylthio)pyrimidin-4-yl]thio}-N-1,3-benzothiazol-2-ylacetamide] |  | > 2 | < 0.05
CSc1nc(N)nc(N(CCC2CCOCC2)CC(=O)Nc2cccc(C(F)(F)F)c2)c1C#N [Example 105, N^2-[2-amino-5-cyano-6-(methylthio)pyrimidin-4-yl]-N^2-[2-(tetrahydro-2H-pyran-4-4yl)ethyl]-N-[3-(trifluoromethyl)phenyl]glycinamide] |  |  | > 2
